According to patent publication US9645154B2, “Method for detecting cancer cell” (ARKRAY, Inc., priority 2010, dated 2017):

Legend:
[1] = system: Blood cells; assay: Aminolevulinic acid (with FeCl2 and ascorbic acid at the same concentration) labeling, fluorescence microscopy image analysis (false-positive/negative rate); type: cell-based, human
From the text: Blood was collected from a human subject using a vacuum blood collection tube (with EDTA•2K). Blood cells were separated using HetaSep (STEMCELL Technologies) in accordance with manufacturer's instructions.
(§1) When performing the hemolyzing treatment, the collected blood cell fraction was hemolyzed using ammonium chloride (STEMCELL Technologies) at room temperature according to the manufacture's manuals.
(§2) The number of the cells was counted using a hemacytometer in accordance with the conventional method, and then 10^5 to 10^6 cells per sample (cell suspension) was aliquoted. The sample was centrifuged to remove the supernatant. Subsequently, aminolevulinic acid 5-AMINOLEVULINATE HYDROCHLORIDE (trade name, Cosmo Bio Co., Ltd., at the final concentration given in Table 7 or 8) dissolved in Dulbecco's PBS (+) and FeCl2 and ascorbic acid having the same concentration as that of aminolevulinic acid, respectively, were added thereto, and the cells were suspended well. The number of the cells was adjusted, and then the cells were added dropwise to a 384-well plate. The plate was centrifuged to spin down the cells. The image was captured with a fluorescence microscope (Nikon Corp.).
(§3) The wavelengths for the fluorescence filter set: EX (excitation wavelength): 402±7.5, DM: 430 or longer, BA (fluorescence wavelength): 625±15.
The acquired images were analyzed using an image analysis software NIS-ELEMENTS (trade name, Nikon Corp.) to evaluate the fluorescence intensity of the cell.

[2] = system: human gastric cancer cells (SNU-1); assay: Aminolevulinic acid (with FeCl2 and ascorbic acid) labeling, fluorescence microscopy image analysis (positive rate); type: cell-based; conditions: hemolyzed, 0.3 mM, 60 min, 37° C., threshold value 198
From the text: (§4) In accordance with the conventional method, cultured human prostate cancer cell line PC3 (DS Pharma Biomedical Co., Ltd.) was harvested with trypsin (Invitrogen). The human gastric cancer cell line SNU-1 (ATCC), which is a suspension cell line, was directly harvested without any trypsin treatment. The cell suspension of the harvested cancer cells was centrifuged, and the supernatant was removed. The cells were resuspended with Dulbecco's PBS (+) (Nissui Pharmaceutical Co., Ltd.) and centrifuged, and the supernatant was removed again.
The number of the cells was counted using a hemacytometer in accordance with the conventional method, and then 10^5 to 10^6 cells per sample (cell suspension) was aliquoted. The sample was centrifuged to remove the supernatant. […] The image was captured with a fluorescence microscope (Nikon Corp.).
as §3
(§5) The acquired images were analyzed using an image analysis software NIS-ELEMENTS (trade name, Nikon Corp.) to evaluate the fluorescence intensity of the cell. […]

[3] = system: human prostate cancer cell line PC3; assay: Aminolevulinic acid (with FeCl2 and ascorbic acid at the same concentration) labeling, fluorescence microscopy image analysis (positive rate); type: cell-based
From the text: as §4, §1, §2, §3, §5

[4] = hemolyzed, 0.3 mM, 60 min, 37° C., threshold value 198 (Gastric cancer)
[5] = hemolyzed, 0.3 mM, 60 min, 37° C., threshold value 203 (Fibrosarcoma)
[6] = hemolyzed, 0.3 mM, 60 min, 37° C., threshold value 207 (Colon adenocarcinoma)
[7] = hemolyzed, 0.3 mM, 60 min, 37° C., threshold value 212 (Alveolar epithelial cancer)
[8] = hemolyzed, 0.3 mM, 60 min, 37° C., threshold value 265 (Prostate cancer)
[9] = hemolyzed, 0.3 mM, 60 min, 37° C., threshold value 268 (Breast adenocarcinoma)
[10] = hemolyzed, 0.1 mM, 37° C., 60 min
[11] = hemolyzed, 0.3 mM, 37° C., 60 min (concentration series)
[12] = hemolyzed, 1 mM, 37° C., 60 min
[13] = hemolyzed, 4° C., 0.3 mM, 60 min
[14] = hemolyzed, 23° C., 0.3 mM, 60 min
[15] = hemolyzed, 37° C., 0.3 mM, 60 min (temperature series)
[16] = hemolyzed, 30 min, 0.3 mM, 37° C.
[17] = hemolyzed, 60 min, 0.3 mM, 37° C. (time series)
[18] = hemolyzed, 120 min, 0.3 mM, 37° C.
[19] = without hemolyzing treatment, 0.1 mM, 37° C., 60 min
[20] = without hemolyzing treatment, 0.3 mM, 37° C., 60 min (concentration series)
[21] = without hemolyzing treatment, 1 mM, 37° C., 60 min
[22] = without hemolyzing treatment, 4° C., 0.3 mM, 60 min
[23] = without hemolyzing treatment, 23° C., 0.3 mM, 60 min
[24] = without hemolyzing treatment, 37° C., 0.3 mM, 60 min (temperature series)
[25] = without hemolyzing treatment, 30 min, 0.3 mM, 37° C.
[26] = without hemolyzing treatment, 60 min, 0.3 mM, 37° C. (time series)
[27] = without hemolyzing treatment, 120 min, 0.3 mM, 37° C.

SMILES: NCC(=O)CCC(=O)O [aminolevulinic acid, 5-amino-4-oxopentanoic acid]
- Negative rate (Blood cells (fresh blood)) [1, 4]: 95.2%
- Positive rate (Blood cells (fresh blood)) [1, 4]: 4.8%
- Negative rate (Blood cells (fresh blood)) [1, 5]: 95.2%
- Positive rate (Blood cells (fresh blood)) [1, 5]: 4.8%
- Negative rate (Blood cells (fresh blood)) [1, 6]: 95.2%
- Positive rate (Blood cells (fresh blood)) [1, 6]: 4.8%
- Negative rate (Blood cells (fresh blood)) [1, 7]: 95.2%
- Positive rate (Blood cells (fresh blood)) [1, 7]: 4.8%
- Negative rate (Blood cells (fresh blood)) [1, 8]: 95.2%
- Positive rate (Blood cells (fresh blood)) [1, 8]: 4.8%
- Negative rate (Blood cells (fresh blood)) [1, 9]: 95.6%
- Positive rate (Blood cells (fresh blood)) [1, 9]: 4.4%
- Negative rate (Blood cells) [1, 10]: 98%
- Positive rate (Blood cells) [1, 10]: 2%
- Negative rate (Blood cells) [1, 11]: 93%
- Positive rate (Blood cells) [1, 11]: 7%
- Negative rate (Blood cells) [1, 12]: 87%
- Positive rate (Blood cells) [1, 12]: 13%
- Negative rate (Blood cells) [1, 13]: 98%
- Positive rate (Blood cells) [1, 13]: 2%
- Negative rate (Blood cells) [1, 14]: 98%
- Positive rate (Blood cells) [1, 14]: 2%
- Negative rate (Blood cells) [1, 15]: 88%
- Positive rate (Blood cells) [1, 15]: 12%
- Negative rate (Blood cells) [1, 16]: 98%
- Positive rate (Blood cells) [1, 16]: 2%
- Negative rate (Blood cells) [1, 17]: 100%
- Positive rate (Blood cells) [1, 17]: 0%
- Negative rate (Blood cells) [1, 18]: 94%
- Positive rate (Blood cells) [1, 18]: 6%
- Negative rate (Blood cells) [1, 19]: 98%
- Positive rate (Blood cells) [1, 19]: 2%
- Negative rate (Blood cells) [1, 20]: 99%
- Positive rate (Blood cells) [1, 20]: 1%
- Negative rate (Blood cells) [1, 21]: 93%
- Positive rate (Blood cells) [1, 21]: 7%
- Negative rate (Blood cells) [1, 22]: 98%
- Positive rate (Blood cells) [1, 22]: 2%
- Negative rate (Blood cells) [1, 23]: 100%
- Positive rate (Blood cells) [1, 23]: 0%
- Negative rate (Blood cells) [1, 24]: 100%
- Positive rate (Blood cells) [1, 24]: 0%
- Negative rate (Blood cells) [1, 25]: 98%
- Positive rate (Blood cells) [1, 25]: 2%
- Negative rate (Blood cells) [1, 26]: 99%
- Positive rate (Blood cells) [1, 26]: 1%
- Negative rate (Blood cells) [1, 27]: 86%
- Positive rate (Blood cells) [1, 27]: 14%
- Positive rate (Cancer cells) [2]: 81.6%
- Positive rate (Cancer cells) ([3]; Prostate cancer, hemolyzed, 0.3 mM, 60 min, 37° C., threshold value 265): 92.7%
- Positive rate (PC3 cells) [3, 10]: 44%
- Positive rate (PC3 cells) [3, 11]: 85%
- Positive rate (PC3 cells) [3, 12]: 88%
- Positive rate (PC3 cells) [3, 13]: 31%
- Positive rate (PC3 cells) [3, 14]: 54%
- Positive rate (PC3 cells) [3, 15]: 80%
- Positive rate (PC3 cells) [3, 16]: 59%
- Positive rate (PC3 cells) [3, 17]: 93%
- Positive rate (PC3 cells) [3, 18]: 92%
- Positive rate (PC3 cells) [3, 19]: 54%
- Positive rate (PC3 cells) [3, 20]: 88%
- Positive rate (PC3 cells) [3, 21]: 94%
- Positive rate (PC3 cells) [3, 22]: 13%
- Positive rate (PC3 cells) [3, 23]: 18%
- Positive rate (PC3 cells) [3, 24]: 83%
- Positive rate (PC3 cells) [3, 25]: 80%
- Positive rate (PC3 cells) [3, 26]: 81%
- Positive rate (PC3 cells) [3, 27]: 84%
